Data: patent US9198433B2, “Substituted benzene fungicides” (E I DU PONT DE NEMOURS AND COMPANY, priority 2007, dated 2015)
Marks after values point to notes of the source that are not given here.

How the values were obtained:
Assay type in all cases: in vivo
Botrytis cinerea = assay: Test F: tomato Botrytis, preventive spray on tomato seedlings, disease rating
Excerpt: (§1) The test compounds were first dissolved in acetone in an amount equal to 3% of the final volume and then suspended at the desired concentration (in ppm) in acetone and purified water (50/50 mix) containing 250 ppm of the surfactant Trem® 014 (polyhydric alcohol esters). The resulting test suspensions were then used in Tests A-L. Spraying a 200 ppm test suspension to the point of run-off on the test plants was the equivalent of an application rate of 500 g/ha. The test suspension was sprayed to the point of run-off on tomato seedlings. […] A dash (-) indicates no test results. All results are for 200 ppm except where followed by an “*”, which indicates 40 ppm or “**”, which indicates 50 ppm.

[1] = test system: Erysiphe graminis f. sp. tritici; assay: Test A: wheat powdery mildew, preventive spray on wheat seedlings, disease rating
Excerpt: (§2) The test compounds were first dissolved in acetone in an amount equal to 3% of the final volume and then suspended at the desired concentration (in ppm) in acetone and purified water (50/50 mix) containing 250 ppm of the surfactant Trem® 014 (polyhydric alcohol esters). The resulting test suspensions were then used in Tests A-L. Spraying a 200 ppm test suspension to the point of run-off on the test plants was the equivalent of an application rate of 500 g/ha. The test suspension was sprayed to the point of run-off on wheat seedlings. […] A dash (-) indicates no test results. All results are for 200 ppm except where followed by an “*”, which indicates 40 ppm or “**”, which indicates 50 ppm.

[2] = test system: Puccinia recondita f. sp. tritici; assay: Test B: wheat leaf rust, preventive spray on wheat seedlings, disease rating
Excerpt: as §2

Septoria tritici = assay: Test D: wheat leaf blotch, preventive spray on wheat seedlings, disease rating
Excerpt: The test compounds were first dissolved in acetone in an amount equal to 3% of the final volume and then suspended at the desired concentration (in ppm) in acetone and purified water (50/50 mix) containing 250 ppm of the surfactant Trem® 014 (polyhydric alcohol esters). The resulting test suspensions were then used in Tests A-L. Spraying a 200 ppm test suspension to the point of run-off on the test plants was the equivalent of an application rate of 500 g/ha. The test suspension was sprayed to the point of run-off on wheat seedlings. The following day the seedlings were inoculated with a spore suspension of Septoria tritici (the causal agent of wheat leaf blotch) and incubated in a saturated atmosphere at 24° C. for 48 h, and then moved to a growth chamber at 20° C. for 19 days, after which time disease ratings were made. […] A dash (-) indicates no test results. All results are for 200 ppm except where followed by an “*”, which indicates 40 ppm or “**”, which indicates 50 ppm.

Alternaria solani = assay: Test H: tomato early blight, preventive spray on tomato seedlings, disease rating
Excerpt: as §1

Septoria nodorum = assay: Test C: wheat glume blotch, preventive spray on wheat seedlings, disease rating
Excerpt: as §2

[3] = 200 ppm, 100 = 100% disease control, 0 = no control relative to controls
[4] = 40 ppm (*), 100 = 100% disease control, 0 = no control relative to controls

Row | SMILES | Percentage Disease Control, Test F (Botrytis cinerea; 40 ppm (*)) | Percentage Disease Control, Test A ([1]; 40 ppm (*)) | Percentage Disease Control, Test B ([2]; 40 ppm (*)) | Percentage Disease Control, Test D (Septoria tritici; 40 ppm (*)) | Percentage Disease Control, Test H (Alternaria solani; 40 ppm (*)) | Percentage Disease Control, Test C (Septoria nodorum; 40 ppm (*)) | Percentage Disease Control, Test F (Botrytis cinerea; 200 ppm) [%] | Percentage Disease Control, Test H (Alternaria solani; 200 ppm) [%] | also measured
1 | COC(=O)NCc1cc(-c2ccn(Cc3ccc(Cl)cc3)n2)ccc1Cl [Cmpd 67] | 0* % | 96* % | 99* % | 100* % | 96* % | 99* % | – | – | –
2 | COC(=O)NCc1cc(-c2ccn(-c3cccc(Cl)c3)n2)ccc1Cl [Cmpd 80] | 60* % | 98* % | 98* % | 100* % | 29* % | 100* % | – | – | –
3 | COC(=O)NCc1cc(-c2ccn(-c3nc(SCc4ccccc4)ns3)n2)ccc1Cl [Cmpd 91] | – | – | – | – | – | – | 0 | 33 | Percentage Disease Control, Test A ([1]; 200 ppm): 0%; Percentage Disease Control, Test B ([2]; 200 ppm): 85%; Percentage Disease Control, Test D (Septoria tritici; 200 ppm): 97%; Percentage Disease Control, Test C (Septoria nodorum; 200 ppm): 64%
4 | COC(=O)NCc1cc(-c2ccn(-c3nc(C(C)(C)C)ns3)n2)ccc1Cl [Cmpd 96] | – | 100* % | 100* % | 100* % | – | 100* % | 0 | 59 | –
5 | COC(=O)NCc1cc(-c2ccn(Cc3ccccc3C(F)(F)F)n2)ccc1Cl [Cmpd 62] | 0* % | 99* % | 99* % | 100* % | 0* % | 100* % | – | – | –
6 | COC(=O)NCc1cc(-c2ccn(-c3ccccc3C(C)=O)n2)ccc1Cl [Cmpd 54] | 0* % | 99* % | 100* % | 99* % | – | 99* % | – | – | –
7 | COC(=O)C(=O)c1cc(-c2ccn(-c3cccc(C(F)(F)F)c3)n2)ccc1C [Cmpd 83] | – | – | – | – | – | – | 0 | 0 | Percentage Disease Control, Test A ([1]; 200 ppm): 19%; Percentage Disease Control, Test B ([2]; 200 ppm): 0%; Percentage Disease Control, Test D (Septoria tritici; 200 ppm): 89%; Percentage Disease Control, Test C (Septoria nodorum; 200 ppm): 0%
8 | COC(=O)NCc1cc(-c2ccn(-c3cccc(F)c3)n2)ccc1Cl [Cmpd 115] | – | – | – | – | – | – | 32 | 96 | Percentage Disease Control, Test A ([1]; 200 ppm): 98%; Percentage Disease Control, Test B ([2]; 200 ppm): 99%; Percentage Disease Control, Test D (Septoria tritici; 200 ppm): 100%; Percentage Disease Control, Test C (Septoria nodorum; 200 ppm): 100%
9 | COC(=O)NCc1cc(-c2ccn(Cc3cccc(OC(F)(F)F)c3)n2)ccc1Cl [Cmpd 65] | 0* % | 99* % | 99* % | 100* % | 8* % | 99* % | – | – | –
10 | COC(=O)NCc1cc(-c2ccnc(OCc3ccccc3)n2)ccc1Cl [Cmpd 139] | – | – | – | – | – | – | – | – | Percentage Disease Control, Test F (Botrytis cinerea; [3]): 0%; Percentage Disease Control, Test A [1, 3]: 87%; Percentage Disease Control, Test B [2, 4]: 100* %; Percentage Disease Control, Test D (Septoria tritici; [4]): 92* %; Percentage Disease Control, Test H (Alternaria solani; [3]): 26%; Percentage Disease Control, Test C (Septoria nodorum; [4]): 99* %
11 | COC(=O)NCc1cc(-c2ccn(-c3ccc(Br)cc3)n2)ccc1Cl [Cmpd 111] | – | 99* % | 100* % | 100* % | 90* % | 100* % | 95 | – | –
12 | COC(=O)NCc1cc(-c2ccn(-c3nccc(C(F)(F)F)n3)n2)ccc1Cl [Cmpd 87] | 0* % | 82* % | 100* % | 99* % | 9* % | 97* % | – | – | –
13 | COC(=O)NCc1cc(-c2ccn(-c3ccc(F)cc3)n2)ccc1Cl [Cmpd 116] | – | – | – | – | – | – | 0 | 99 | Percentage Disease Control, Test A ([1]; 200 ppm): 99%; Percentage Disease Control, Test B ([2]; 200 ppm): 100%; Percentage Disease Control, Test D (Septoria tritici; 200 ppm): 96%; Percentage Disease Control, Test C (Septoria nodorum; 200 ppm): 100%
14 | COC(=O)NCc1cc(-c2cnn(Cc3ccccc3Cl)c2)ccc1Cl [Cmpd 129] | – | – | – | – | – | – | – | – | Percentage Disease Control, Test F (Botrytis cinerea; [3]): 0%; Percentage Disease Control, Test A [1, 3]: 94%; Percentage Disease Control, Test B [2, 3]: 98%; Percentage Disease Control, Test D (Septoria tritici; [4]): 92* %; Percentage Disease Control, Test H (Alternaria solani; [3]): 0%; Percentage Disease Control, Test C (Septoria nodorum; [3]): 90%
15 | COC(=O)NCc1cc(-c2ccn(CC(C)Oc3ccccc3)n2)ccc1Cl (racemic) [Cmpd 61] | 0* % | 84* % | 100* % | 99* % | 0* % | 99* % | – | – | –
16 | COC(=O)NCc1cc(-c2cn(-c3ccc(Cl)cc3)nn2)ccc1Cl [Cmpd 148] | – | – | – | – | – | – | – | – | Percentage Disease Control, Test F (Botrytis cinerea; [3]): 46%; Percentage Disease Control, Test A [1, 3]: 85%; Percentage Disease Control, Test B [2, 4]: 90* %; Percentage Disease Control, Test D (Septoria tritici; [4]): 98* %; Percentage Disease Control, Test H (Alternaria solani; [3]): 0%; Percentage Disease Control, Test C (Septoria nodorum; [3]): 90%
17 | CCSc1nsc(-n2ccc(-c3ccc(Cl)c(CNC(=O)OC)c3)n2)n1 [Cmpd 93] | – | 93* % | 98* % | 96* % | – | 100* % | 0 | 15 | –
18 | COC(=O)NCc1cc(-c2ccn(-c3ccc(C(F)(F)F)cc3)n2)ccc1Cl [Cmpd 79] | 0* % | 99* % | 99* % | 99* % | – | 100* % | – | – | –
19 | COC(=O)NNc1cc(-c2ccn(-c3cccc(C(F)(F)F)c3)n2)ccc1Cl [Cmpd 64] | – | 99* % | 100* % | 93* % | – | – | 16 | 62 | Percentage Disease Control, Test C (Septoria nodorum; 200 ppm): 99%
20 | COC(=O)NCc1cc(-c2cc(C(F)(F)F)n(CCC(C)(C)C)n2)ccc1Cl [Cmpd 101] | – | 98* % | 99* % | 95* % | – | 100* % | 0 | 0 | –
21 | COC(=O)NCc1cc(-c2ccn(Cc3ccccc3C)n2)ccc1Cl [Cmpd 70] | – | 99* % | 99* % | 100* % | 96* % | 100* % | – | – | –
22 | COC(=O)NCc1cc(-c2ccn(-c3ccc(OC(F)(F)F)cc3)n2)ccc1Cl [Cmpd 77] | – | 99* % | 100* % | 100* % | 96* % | 100* % | – | – | –
23 | CCCn1nc(-c2ccc(Cl)c(CNC(=O)OC)c2)cc1C(F)(F)F [Cmpd 103] | – | 99* % | 98* % | 99* % | – | – | 0 | – | Percentage Disease Control, Test C (Septoria nodorum; 200 ppm): 87%
24 | COC(=O)NCc1cc(-c2ccn(Cc3cccc(C)c3)n2)ccc1Cl [Cmpd 71] | – | 99* % | 100* % | 100* % | 84* % | 100* % | – | – | –
25 | CCCCn1nc(-c2ccc(Cl)c(CNC(=O)OC)c2)cc1C(F)(F)F [Cmpd 102] | – | 98* % | 98* % | 98* % | – | 96* % | 0 | – | –
26 | COC(=O)NCc1cc(-c2ccn(-c3ccc(-c4ccccc4)cc3)n2)ccc1Cl [Cmpd 82] | 0* % | 60* % | 0* % | – | 7* % | 86* % | – | – | –
